How the values were obtained:
[1] = tested on: unprenylated Rap1A in AB-12 mesothelioma cells; assay: Western blot, unprenylated Rap1A (Example 2); assay type: cell-based, mouse; conditions: AB-12 cells; 24 h
Procedure: (§1) Western blot analysis. Cells were cultured on 6-well plates in normal culture medium until near confluency. The cells were then rinsed with sterile PBS and cultured for further 24 h in serum-tree culture medium, in the presence or absence of the indicated bisphosphonates. Some cultures were also treated with 25 μM geranylgeraniol (cold, all trans), 1.0 μg/ml LPS (Sigma; St. Louis, Mo.) 10 ng/ml IL-1β (R&D Systems; Minneapolis, Minn.) or TNF-α (R&D Systems). To study bisphosphonate effects on connexin-43 expression, the cells were cultured for 24 h in serum-free culture medium in the presence of the indicated bisphosphonates or PBS as a vehicle control. Culture medium was then discarded, the cells were quickly lysed and prepared into Western blot samples, as described in Merrell et al. (2000) Breast Cancer Res. Treat. 81, 231-241. After boiling the supernatants in reducing sodium docedyl sulfate (SDS) sample buffer, equal amounts of protein (˜20-50 μg) were loaded per lane and the samples were electrophoresed on 10% SDS polyacrylamide gel and transferred to a nitrocellulose membrane. To detect, unprenylated Rap1A, the blots were incubated overnight at 4° C. with the antibody SC-1482 (Santa Cruz Technology (San Diego, Calif.)), diluted 1:1000 in Tris-buffered saline, 0.1% (v/v) Tween-20 (TEST), and then with peroxidase-conjugated anti-goat serum (Pierce; Rockford, Ill.), diluted 1:1000 in TBST. Total Rap1 was detected from stripped blots in a similar fashion, with the antibody SC-65 (Santa Cruz Technology). The phosphorylation status of p38 was investigated using anti-phospho-p38 (Cell Signaling; Beverly, Mass.) and after stripping of the membrane, with anti-total p38 antibodies (Cell Signaling), according to the manufacturer's instructions. Expression of connexin-43 was detected with a rabbit anti-connexin-43 antibody (Zymed Laboratories, Inc.; San Francisco, Calif.), diluted 1:1000 in TBST. The protein bands were visualized by chemiluminescence using SuperSignal West Pico ECL kit (Pierce Biotechnology, Inc.; Rockford, Ill.).

MDA-MB-231 cells = assay: Cell viability, MTS-assay; assay type: cell-based, human
Procedure: Cell viability assays. Cells were plated on 96-well plates at the density of 1×10^3 cells in 100 μl per well in normal culture medium, with or without of the indicated concentrations of the various bisphosphonate combinations and or 1 mM CaCl2, 1 mM EGTA or vehicle and cultured for 48 h. Cell viability was assessed with 3-(4,5-dimethylthiazol-2-yl)-5-(3-carboxy tetrazolium, inner salt (MTS)-assays (CellTiter Aqueous One 96 from Promega; Madison, Wis.) according to the manufacturer's instructions. For each treatment, a PBS-control group was run simultaneously on the same plate. The results for each treatment were calculated as % of the corresponding PBS-group.

[2] = tested on: unprenylated Rap1A in MDA-MB-231 breast cancer cells; assay: Western blot, unprenylated Rap1A (Example 2); assay type: cell-based, human; conditions: MDA-MB-231 cells; 24 h
Procedure: as §1

**Q.** Which results are given for O=P(O)(O)C(O)(Cc1cccnc1)P(=O)(O)O [risedronate]?
**A.** accumulation of unprenylated Rap1A [1]: dose-dependent accumulation; effect of added Ca2+ on the bisphosphonate's growth inhibitory effect (MDA-MB-231 cells; 1 mM CaCl2, N-BP 10^−4 M or p-BP 10^−3 M): enhanced; effect of excess clodronate on the viability change induced by the nitrogen-containing bisphosphonate (MDA-MB-231 cells; N-BP 10^−4 M + clodronate 10^−3 M): did not interfere; effect of excess etidronate on the viability change induced by the nitrogen-containing bisphosphonate (MDA-MB-231 cells; N-BP 10^−4 M + etidronate 10^−3 M): increased; accumulation of unprenylated Rap1A [2]: dose-dependent accumulation
